Reference: PubChem BioAssay (NCI)
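How tested: cells in 96-well plates exposed to compound for 48 hours at five concentrations. Here, GI50 denotes the concentration required for 50% inhibition of growth. TGI: concentration producing complete growth inhibition.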

What was measured:
Test in all cases: growth of human tumour cells (NCI), 48 h
HCT-116 colon = system: HCT-116 colon
NCI-H460 lung = system: NCI-H460 lung
HS 578T breast = system: HS 578T breast
CCRF-CEM leukemia = system: CCRF-CEM leukemia
SR leukemia = system: SR leukemia
HL-60(TB) leukemia = system: HL-60(TB) leukemia
SF-268 CNS = system: SF-268 CNS
HCT-15 colon = system: HCT-15 colon
NCI/ADR-RES ovarian = system: NCI/ADR-RES ovarian
MDA-N = system: MDA-N

O=C1c2cccnc2C(=O)c2c1c(C(=O)OCCN1CCCCC1)c1ccccn21
GI50 (HCT-116 colon): 0.041 µM | TGI (HCT-116 colon): 1.95 µM | GI50 (NCI-H460 lung): 0.005 µM | TGI (NCI-H460 lung): 0.0128 µM | GI50 (HS 578T breast): 0.0723 µM | TGI (HS 578T breast): 0.376 µM | GI50 (CCRF-CEM leukemia): 0.294 µM | TGI (CCRF-CEM leukemia): 5 µM | GI50 (SR leukemia): 0.00698 µM | TGI (SR leukemia): 0.0828 µM | GI50 (HL-60(TB) leukemia): 0.363 µM | TGI (HL-60(TB) leukemia): 3.24 µM | GI50 (SF-268 CNS): 0.0345 µM | TGI (SF-268 CNS): 0.365 µM | GI50 (HCT-15 colon): 0.0416 µM | TGI (HCT-15 colon): 0.984 µM | GI50 (NCI/ADR-RES ovarian): 0.0331 µM | TGI (NCI/ADR-RES ovarian): 1.07 µM

COc1ccccc1CC(C)N (stereo not given)
TGI (HCT-116 colon): > 100 µM | TGI (NCI-H460 lung): > 100 µM | TGI (CCRF-CEM leukemia): > 100 µM | TGI (HL-60(TB) leukemia): > 100 µM | TGI (SF-268 CNS): > 100 µM | TGI (HCT-15 colon): > 100 µM

C=C(C)[C@@H]1CCC2=C[C@H](C/C(C)=C\C3=CC(C)=C(O3)[C@H]1O)OC2=O
TGI (NCI-H460 lung): > 100 µM | TGI (HS 578T breast): > 100 µM | TGI (CCRF-CEM leukemia): > 100 µM | TGI (SR leukemia): > 100 µM | TGI (HL-60(TB) leukemia): > 100 µM | TGI (SF-268 CNS): > 100 µM | TGI (HCT-15 colon): > 100 µM | TGI (NCI/ADR-RES ovarian): > 100 µM

CCCCCCCCCCCCCCCCCCNc1ccn(C2OC(CO)C(OP(=O)(O)OCC(O)COP(=O)(O)OCC3OC(n4cc(F)c(NCCCCCCCCCCCCCCCCCC)nc4=O)CC3O)C2O)c(=O)n1 (stereo not given)
TGI (MDA-N): > 50 µM | TGI (HCT-116 colon): > 50 µM | TGI (NCI-H460 lung): > 50 µM | TGI (HS 578T breast): > 50 µM | TGI (HL-60(TB) leukemia): > 50 µM | TGI (SF-268 CNS): > 50 µM | TGI (HCT-15 colon): > 50 µM | TGI (NCI/ADR-RES ovarian): > 50 µM

O=C(NCCC1CN(C(=O)OCc2ccccc2)c2ccccc21)OCc1ccccc1 (stereo not given)
TGI (MDA-N): > 100 µM | TGI (HCT-116 colon): > 100 µM | TGI (NCI-H460 lung): > 100 µM | TGI (HS 578T breast): > 100 µM | TGI (SF-268 CNS): > 100 µM | TGI (HCT-15 colon): > 100 µM | TGI (NCI/ADR-RES ovarian): > 100 µM

CC1C(=O)CC(c2cccs2)N(N=O)C1c1cccs1 (stereo not given)
TGI (HCT-116 colon): > 100 µM | TGI (NCI-H460 lung): > 100 µM | TGI (CCRF-CEM leukemia): > 100 µM | TGI (HL-60(TB) leukemia): > 72.2 µM | TGI (SF-268 CNS): > 100 µM | TGI (HCT-15 colon): > 100 µM | TGI (NCI/ADR-RES ovarian): > 100 µM

COc1ccc(-c2nc3c(nc2-c2ccc(OC)cc2)C(N)=NS(=O)(=O)N3)cc1
TGI (CCRF-CEM leukemia): > 100 µM | TGI (HL-60(TB) leukemia): > 100 µM | TGI (SF-268 CNS): > 100 µM | TGI (HCT-15 colon): > 100 µM

Cc1[nH]c(=O)[nH]c(=O)c1/C=C/C(=O)NC(CO)CS(=O)CS(C)=O (stereo not given)
TGI (HCT-116 colon): 129 µM | TGI (NCI-H460 lung): 68.1 µM | TGI (CCRF-CEM leukemia): 111 µM | TGI (HL-60(TB) leukemia): 57.4 µM | TGI (SF-268 CNS): 35.2 µM | TGI (HCT-15 colon): 408 µM | TGI (NCI/ADR-RES ovarian): 263 µM

C[Si](C)(C)c1ccc(-c2c3ccc(-c4cc(Br)cc(Br)c4)nc3nc3nc(-c4cc(Br)cc(Br)c4)ccc23)cc1
TGI (MDA-N): > 100 µM | TGI (HCT-116 colon): > 100 µM | TGI (NCI-H460 lung): > 100 µM | TGI (SF-268 CNS): > 100 µM | TGI (HCT-15 colon): > 100 µM | TGI (NCI/ADR-RES ovarian): > 100 µM

CCc1n[nH]c(=O)n1/N=C(\C)c1ccc([N+](=O)[O-])cc1
TGI (MDA-N): > 100 µM | TGI (HCT-116 colon): > 100 µM | TGI (NCI-H460 lung): > 100 µM | TGI (HS 578T breast): > 100 µM | TGI (CCRF-CEM leukemia): > 100 µM | TGI (HL-60(TB) leukemia): > 100 µM | TGI (SF-268 CNS): > 100 µM | TGI (HCT-15 colon): > 100 µM | TGI (NCI/ADR-RES ovarian): > 100 µM

COC(=O)C1=C(C)N2CCSC2(C)C(C(=O)OC)C1c1cccc(Cl)c1 (stereo not given)
TGI (HCT-116 colon): 34.9 µM | TGI (NCI-H460 lung): 74.5 µM | TGI (CCRF-CEM leukemia): 69.5 µM | TGI (SR leukemia): 66.7 µM | TGI (HL-60(TB) leukemia): 49.3 µM | TGI (SF-268 CNS): 43.7 µM

OCC(O)CNc1ncnc2ccccc12 (stereo not given)
TGI (MDA-N): > 100 µM | TGI (HCT-116 colon): > 100 µM | TGI (NCI-H460 lung): > 100 µM | TGI (HS 578T breast): > 100 µM | TGI (CCRF-CEM leukemia): > 100 µM | TGI (HL-60(TB) leukemia): > 100 µM | TGI (SF-268 CNS): > 100 µM | TGI (HCT-15 colon): > 100 µM | TGI (NCI/ADR-RES ovarian): > 100 µM

CC(C)(C)c1ccc2c(c1)C#Cc1cc(C(C)(C)C)ccc1OCCCO2
TGI (MDA-N): > 100 µM | TGI (HCT-116 colon): > 100 µM | TGI (NCI-H460 lung): > 100 µM | TGI (HS 578T breast): > 100 µM | TGI (CCRF-CEM leukemia): > 100 µM | TGI (HL-60(TB) leukemia): > 100 µM | TGI (SF-268 CNS): > 100 µM | TGI (HCT-15 colon): > 100 µM | TGI (NCI/ADR-RES ovarian): > 100 µM

CC[C@@]1(O)C(=O)OCc2c1cc1n(c2=O)Cc2cc3ccccc3nc2-1
TGI (HCT-116 colon): 1.91 µM | TGI (NCI-H460 lung): 0.158 µM | TGI (HS 578T breast): > 100 µM | TGI (CCRF-CEM leukemia): 0.0159 µM | TGI (SR leukemia): 0.0769 µM | TGI (HL-60(TB) leukemia): 0.0527 µM | GI50 (SF-268 CNS): < 0.01 µM | TGI (SF-268 CNS): 4.01 µM | TGI (HCT-15 colon): 7.99 µM | GI50 (NCI/ADR-RES ovarian): < 0.0143 µM | TGI (NCI/ADR-RES ovarian): 0.125 µM

CCOC(=O)C1(C/C=C/CCl)CCCC1=O (stereo not given)
TGI (MDA-N): 35.1 µM | TGI (HCT-116 colon): 34.9 µM | TGI (NCI-H460 lung): > 100 µM | TGI (HS 578T breast): > 100 µM | TGI (CCRF-CEM leukemia): > 100 µM | TGI (HL-60(TB) leukemia): > 100 µM | TGI (SF-268 CNS): 68.1 µM | TGI (HCT-15 colon): 40 µM | TGI (NCI/ADR-RES ovarian): 37.2 µM

O=C(NC(Cc1ccc(Br)cc1)C(=O)O)c1ccc(I)cc1 (stereo not given)
TGI (HCT-116 colon): > 100 µM | TGI (NCI-H460 lung): > 100 µM | TGI (CCRF-CEM leukemia): > 100 µM | TGI (HL-60(TB) leukemia): > 100 µM | TGI (SF-268 CNS): > 100 µM | TGI (HCT-15 colon): > 100 µM | TGI (NCI/ADR-RES ovarian): > 100 µM

Nc1ccc(O)c2c1C(=O)c1c(N)ccc(O)c1C2=O
TGI (HCT-116 colon): > 100 µM | TGI (NCI-H460 lung): > 100 µM | TGI (CCRF-CEM leukemia): > 100 µM | TGI (HL-60(TB) leukemia): > 100 µM | TGI (SF-268 CNS): > 100 µM | TGI (HCT-15 colon): > 100 µM

CSc1nc(CO)c(CO)n1C
TGI (HCT-116 colon): > 100 µM | TGI (NCI-H460 lung): > 100 µM | TGI (CCRF-CEM leukemia): > 100 µM | TGI (HL-60(TB) leukemia): > 100 µM | TGI (SF-268 CNS): > 100 µM | TGI (HCT-15 colon): > 100 µM | TGI (NCI/ADR-RES ovarian): > 100 µM

CN(C)CCNC(=O)c1cc(Cl)cc2cc3ccccc3nc12
TGI (HCT-116 colon): 7 µM | TGI (NCI-H460 lung): 2.41 µM | TGI (CCRF-CEM leukemia): 3.28 µM | TGI (HL-60(TB) leukemia): 2.62 µM | TGI (SF-268 CNS): 4.53 µM | TGI (HCT-15 colon): 11.4 µM | TGI (NCI/ADR-RES ovarian): 5.82 µM

C[C@@H]1C(=O)O[C@H]1[C@H](O)CO
TGI (MDA-N): > 100 µM | TGI (HCT-116 colon): > 100 µM | TGI (NCI-H460 lung): > 100 µM | TGI (CCRF-CEM leukemia): > 100 µM | TGI (HL-60(TB) leukemia): > 100 µM | TGI (HCT-15 colon): > 100 µM | TGI (NCI/ADR-RES ovarian): > 100 µM

O=C(CSCC(=O)N/N=C/c1ccccc1)N/N=C\c1ccccc1
TGI (HCT-116 colon): > 100 µM | TGI (NCI-H460 lung): > 100 µM | TGI (HS 578T breast): > 100 µM | TGI (CCRF-CEM leukemia): > 100 µM | TGI (SF-268 CNS): > 100 µM | TGI (HCT-15 colon): > 100 µM | TGI (NCI/ADR-RES ovarian): > 100 µM
